Patent US20250325491A1, “POLYVALENT MOLECULE BASED LIPID NANOPARTICLES FOR NUCLEIC ACID DELIVERY” (Bio-TRIP B.V., priority 2022, published 2025)

Key:
[1] = mRNA recovery, entrapment and retention by Ribogreen assay; format: physicochemical; conditions: mRNA-aNPs containing the polyvalent material; for Retention of mRNA: retention = recovery x entrapment
Method: The Quant-iT RiboGreen assay (Thermo Fisher) was used to quantify the amount of siRNA loaded inside the formulated particles. The assay was performed using a black 96-well plate. The formulation sample with a theoretical siRNA concentration of 133.3 μg/mL, was diluted 200 times in TE buffer (10 mM Tris-HCl, 1 mM, EDTA, pH 7.5 in DEPC-treated water) and with a TE buffer containing 2% Triton™ X-100, in a black 96-well plate to a total volume of 100 μl. The Triton detergent will disrupt the lipid-based nanoparticles; therefore, all siRNA (retained plus unretained) becomes accessible for the Quant-iT RiboGreen reagent. Controls of siRNA of known concentration (28.6 μg/mL) were diluted 53.3 times in both TE buffer and TE buffer containing 2% Triton in a 96-well plate to a total volume of 100 μl. Next, RiboGreen reagent was diluted 200 times with TE buffer and with TE buffer containing Triton. 100 μl of this dilution was added to each well containing sample or control to bring the total volume in the plate to 200 μl. Subsequently, the samples' fluorescence was measured on a Tecan Spark® microplate reader at an excitation wavelength of 480 nm and emission wavelength of 520 nm.
This was done in a similar way as described for determining the siRNA encapsulation efficiency.

[2] = tested on: C57BL/6 mice; experiment: In vivo Firefly luciferase expression; conditions: 0.5 mg/kg Firefly luciferase mRNA in aNP, bolus injection, 16 hours, two animals (FIG. 16)
Method: After 16 hours, the animals were sacrificed and the liver, spleen and femur collected. Organs were processed to yield single cell suspensions. 1/10th of the liver was cut into small pieces, incubated for 15 min, 37° C., 50 RPM with 5 mL liberase solution. Next, the digested liver was put through a 70 μm strainer and collected in a 50 mL falcon tube. After washing with 1×PBS, the cells was resuspended in 15 mL 1×PBS. 1/10th of the spleen was cut into small pieces and put through a 70 μm strainer and collected in a 50 mL falcon tube. After washing with 1×PBS, 1 mL of lysis buffer (BD Pharm Lyse™, cat #555899, diluted 10 times in diH2O) was added and incubated for 4 minute at room temperature. The cells were washed with 1×PBS and resuspended in 15 mL 1×PBS. Both ends of the femur were broken. The bone marrow cells were flushed from the inside of the bone with 10 mL 1×PBS through a 70 μm strainer and collected in a 50 mL falcon tube. The cells were centrifugated and 1 mL lysis buffer (BD Pharm Lyse™, cat #555899, diluted 10 times in diH2O) was added to the pellet and incubated for 1 minute at room temperature. […] All cell suspensions were counted and 500000 cells were seeded in a V-bottom plate. […] 40 μL was transferred to a white 96-well plate and luminescence was measured using the following settings: Settle time: 1000 ms; Integration time: 500 ms; Open filter.

[3] = tested on: Firefly luciferase in RAW264.7 cell line transfected with the pmirGLO plasmid; experiment: In vitro silencing (dose-response curve); conditions: RAW 264.7 cell line; siRNA-aNPs containing the polyvalent molecule vs DLin-MC3-DMA or ALC-0315 particles (FIG. 11)
Method: The in vitro silencing experiments were performed in a RAW264.7 cell line transfected with the pmirGLO plasmid (containing Renilla luciferase and Firefly luciferase expressing gene sequences). The cells were cultured until 80% confluency in a T75 cell culture flask. The cells were detached, counted, and seeded at 10000 cells/well in a 96-well plate. After overnight resting, the cells were transfected with nanoparticles containing anti Firefly luciferase siRNA at a range of concentrations. After 48-hour incubation, the old medium was washed off with 1×PBS. Lysate phosphate buffer (Dual-Luciferase® Reporter Assay System, Promega) was added to lyse the cells. […] Subsequently, 40 μl of ONE-Glo™ reagent (Dual-Luciferase® Reporter Assay System, Promega) was added and luminescence was measured with a Tecan Spark® microplate reader at an integration time of 500 ms, and settle time of 1000 ms. Since the luminescence peak should be in the range of 550-570 nm, a luminescence scan was performed to confirm the wavelength. Next, 40 μl of Stop and Glo reagent (Dual-Luciferase® Reporter Assay System, Promega) was added to each well and the luminescence was measured again in the same way. The relative remaining Firefly luciferase luminescence was calculated. First, the Firefly luminescence was normalized with the Renilla luminescence. […]

[4] = formulation for in vitro experiment (Table S8)
[5] = formulation for in vivo experiment (Table S8)

CCCCCCCCOC(=O)CCN(CCCN(CCCCN(CCCN(CCC(=O)OCCCCCCCC)CCC(=O)OCCCCCCCC)CCCN(CCC(=O)OCCCCCCCC)CCC(=O)OCCCCCCCC)CCCN(CCC(=O)OCCCCCCCC)CCC(=O)OCCCCCCCC)CCC(=O)OCCCCCCCC [Example A2, G1-ACR-nC8-8]
Entrapment of mRNA [1, 4]: 87% | Recovery of mRNA [1, 4]: 27% | Retention of mRNA [1, 4]: 23% | Entrapment of mRNA [1, 5]: 88% | Recovery of mRNA [1, 5]: 57% | Retention of mRNA [1, 5]: 50% | Luminescence intensity of single cell suspensions from liver, spleen and bone marrow (tissue targeting) [2]: target spleen and bone marrow tissue efficiently | silencing potency compared with reference aNPs or LNPs (dose response curve) [3]: higher potency than the reference aNPs or LNPs
